The values below come from patent US20070122501A1, “Formulations containing astragalus extracts and uses thereof” (Hong Kong University of Science and Technology, priority 2003, published 2007).

The test system of experiment [1] is aging (PD34) adult keratinocytes. Description: Scratch (wound healing) assay in aging adult keratinocytes (FIGS. 6, 8, 9). The format is cell-based, human. As to conditions: FIG. 8, comparison of extract and PDGF. The text has this: (§1) Cell lines used in these experiments were obtained from Cascade Biologics, Inc. Neonatal keratinocytes (HEKneo-P) were obtained from a pool generated from three donors, designated HEKn(12), PD 8.46; HEKn(15), PD 9.3; and HEKn(16), PD 5.16. Adult keratinocytes were obtained from a single donor, designated HEKa(18). The terms “neonatal” and “adult” refer to the age of the donor, while the terms “young” and “aging” or “late passage” refer to the age of the cell culture, and correspond to the number of population doublings (indicated as PD no.).
(§2) Cells are plated in flasks (5×10^5 cells per flask) and cultured for two days in a humidified chamber at 5% CO2, 37° C. To create the “wound”, a 2 ml plastic pipette is gently dragged to “scratch” the cell surface. The ideal wound is approximately 2-3 mm wide and 50 mm long (along the long axis of the tissue culture flask). The cells are retreated with medium containing either vehicle (DMSO; control sample) or test compositions at multiple concentrations. […]
(§3) Amount of wound closure is determined by measuring the width of the wound over time for extract-treated samples relative to vehicle-treated or other control cells. […] Percentage of wound healing is calculated by the following formula: WH=100−[100×Wn/W0], where Wn is the width of the wound on day n and W0 is the width of the wound on day one (immediately after scratching).

The subject of experiment [2] is late passage (PD40) neonatal keratinocytes. As to the kind of experiment: Scratch (wound healing) assay in late passage / aging neonatal keratinocytes (FIGS. 7, 10). The format is cell-based, human. The following applies: FIG. 10.
Source text: as §1, §2, §3

Take PDGF: in experiment [1], the “state of scratched cell layer by day 4” value is “confluent or near-confluent”. For the same substance, in experiment [2], the “wound closure after four days” value was “complete or near-complete wound closure”.
